Source: patent US20090270352A1, “Tenofovir Disoproxil Hemi-Fumaric Acid Co-Crystal” (ULTIMORPHIX TECHNOLOGIES B.V., priority 2007, published 2009)
Counter-ions that a name gives are not always drawn.

Experiment: Dynamic Vapour Sorption (DVS) moisture sorption isotherm
Format: physicochemical
Details: for total uptake of water vapours: DVS, 25° C., relative humidity 0% to 95% in steps of 5%, 1 h per step, sorption-desorption cycle
Procedure: Moisture sorption isotherms were measured using a DVS-1 system of Surface Measurement Systems (London, UK). Differences in moisture uptake of various forms of a solid material indicate differences in the relative stabilities of the various solid forms for increasing relative humidity. The experiment was carried out at a constant temperature of 25° C.
A sample of about 11.5 mg of form TDFA 2:1 was spread in the DVS pan. The sample was dried at 0% RH for 7 h. Subsequently the relative humidity of the chamber was increased in steps of 5% units from 0% to 95% in order to monitor the sorption of water vapours. The samples remained in each of the steps for 1 h. Following, desorption was monitored by decreasing the relative humidity to 0% in steps of 5% units and remaining at each step for 1 h. The total uptake of water vapours was about 0.8%, which is line with the industry standard for hygroscopicity. In a similar DVS experiment using the starting material as purchased, the total vapour intake was about 4%, which is undesirable in formulation and requires additional measures.

Row | total uptake of water vapours | changes in the structure by XRPD at the end of the DVS experiment (solid material measured by XRPD after the DVS sorption-desorption cycle (FIG. 4)) | Structure (SMILES)
1 | about 0.8% | no any changes in the structure | CC(C)OC(=O)OCOP(=O)(CO[C@H](C)Cn1cnc2c(N)ncnc21)OCOC(=O)OC(C)C.CC(C)OC(=O)OCOP(=O)(CO[C@H](C)Cn1cnc2c(N)ncnc21)OCOC(=O)OC(C)C.O=C(O)/C=C/C(=O)O [TDFA 2:1, co-crystal of tenofovir disoproxil and fumaric acid in a 2:1 molar ratio]
2 | about 4% |  | CC(C)OC(=O)OCOP(=O)(CO[C@H](C)Cn1cnc2c(N)ncnc21)OCOC(=O)OC(C)C [starting material, 9-[(R)-2-[[bis[[(isopropoxycarbonyl)oxy]methoxy]phosphinyl]-methoxy]propyl] adenine fumarate (1:1), reference compound]
